We go through three compounds from patent publication US11471509B2, “Compositions and methods relating to myomaker-induced muscle cell fusion” (The Board of Regents of the University of Texas System, priority 2013, dated 2022).

The conditions of series [1]: at 78 weeks, cited from earlier work.
For series [2] the following is noted: cited from earlier work.
The subject of a further series is C2C12 myoblasts. In words: C2C12 myoblast fusion in the presence of actin inhibitors. It is filed as cell-based. The conditions noted are these: C2C12 cells infected with GFP or Myomaker virus, Cytochalasin D 0.3 μM, lantrunculin B 0.1 μM.
[3] abbreviates: infantile-onset Pompe disease, compared to untreated historical control population.

“Also recorded” adds a separate entry of the source.

Take alglucosidase alfa [Myozyme]: in series [1] (P=0.006 vs placebo), the “increase in percent predicted forced vital capacity” value was 1.2%. Moreover, in series [1] (average, every other week for 18 months, baseline approximately 325 meters, P=0.03 vs placebo), the “increase in distance walked in six minutes” value was “approximately 25 meters”. Also, in series [2] (setting [3]), the overall survival result is on record as “clearly prolongs” and the ventilator-free survival result was “clearly prolongs”. For the same compound, the side effects result in series [2] (intravenous infusion) is “fever, flushing, skin rash, increased heart rate and even shock”.

As to `C/C1=C/C(=O)O[C@@H]2C[C@@H](CC[C@H](C)/C=C\CC1)O[C@@](O)([C@@H]1CSC(=O)N1)C2` [lantrunculin B, latrunculin B], the myoblast fusion result was “completely blocked fusion” in the series with C2C12 myoblasts and “abolished” with C2C12 myoblasts (listed as latrunculin B).

As for `C=C1[C@@H](C)[C@H]2[C@H](Cc3ccccc3)NC(=O)[C@]23[C@H](OC(C)=O)/C=C/[C@@](C)(O)C(=O)[C@@H](C)C/C=C/[C@H]3[C@@H]1O` [cytochalasin D], the myoblast fusion result with C2C12 myoblasts is recorded as “completely blocked fusion; also recorded: abolished”.
